According to patent publication US20020098186A1, “Use of endothelin inhibitors for treatment or prevention of fibrotic disorders” (priority 1999, published 2002):

Experiments:
[1] = tested on: procollagen α1(I) RNA; assay: Multiprobe RNAse protection assay of liver RNA, procollagen α1(I); type: in vivo, rat; details: BDO rats, LU 80 mg/kg/d for 6 weeks; relative to GAPDH; p<0.05
Protocol: (§1) Plasmids encoded predescribed regions of the rat procollagen α1 (I) and […] (GAPDH) genes, encompassing 230 bp (Bam HI/Rsal sites) and 102 bp (position 335-437), resp. (44, 45). The rat tissue inhibitor of metalloproteinase-1 (TIMP-1) probe (position 176-439) was prepared by RT-PCR according to the published sequence (J. P. Iredale, R. C. Benyon, M. J. P. Arthur (1996). Hepatology 24:176-184.), cloned into pZErO-1 (Invitrogen, San Diego, Calif., U.S.A.) and confirmed by restriction enzyme analysis. Preparation of riboprobes: The cDNA templates were linearized with appropriate restriction endonucleases. […] Riboprobes were purified by electrophoresis through a denaturing polyacrylamide gel and the radioactivity of eluted probes were measured by liquid scintillation counting. […] Autoradiographic signals were analyzed with the public domain NTH Image Program. The procollagen α1(I) and TIMP-1 RNA signals were normalized to the signal of GAPDH RNA and expressed as relative abundance (arbitrary units). 10 liver samples each of negative controls, of untreated rats with BDO and of rats with BDO that received LU at 80 mg/kg/d were analyzed.

[2] = tested on: TIMP-1 RNA; assay: Multiprobe RNAse protection assay of liver RNA, TIMP-1; type: in vivo, rat; details: BDO rats, LU 80 mg/kg/d for 6 weeks; relative to GAPDH; p<0.05
Protocol: as §1

## COc1cc(OC)nc(O[C@H](C(=O)O)C(OC)(c2ccccc2)c2ccccc2)n1 [LU]
[1]
  Reduction of procollagen α1(I) mRNA level: 35%
[2]
  Reduction of TIMP-1 mRNA level: 55%
